Assay results taken from patent US10196390B2, “TYK2 inhibitors and uses thereof” (Nimbus Lakshmi, Inc., priority 2014, dated 2019).

Experiments:
TYK2 = TYK2 (Homo sapiens (Human), UniProt P29597); assay: Tyk2 activity inhibition assay (radioactive kinase assay / Caliper assay); assay type: biochemical
Procedure: Peptide substrate, [[…]], (20 μM) is prepared in reaction buffer (20 mM Hepes pH 7.5, 10 mM MgCl2, 1 mM EGTA, 0.02% Brij35, 0.02 mg/mL BSA, […], 2 mM DTT, 1% DMSO. TYK2 (Invitrogen) kinase is added, followed by compounds in DMSO. 33PATP is added to initiate the reaction in ATP at 10 μM. Kinase reaction is incubated for 120 min at room temp and reactions are spotted onto P81 ion exchange paper (Whatman #3698-915), and then washed extensively in 0.75% phosphoric acid, prior to reading the radioactivity counts. For JAK2 (Invitrogen) kinase assay the peptide substrate poly[Glu:Tyr](4:1), 0.2 mg/ml is used, in the reaction carried out the same as for TYK2.
(§1) The caliper machine employs an off chip mobility shift assay to detect phosphorylated peptide substrates from kinase assays, using microfluidics technology. The assays are carried out at ATP concentration equivalent to the ATP Km, and at 1 mM ATP. Compounds are serially diluted in DMSO then further diluted in assay buffer (25 mM HEPES, pH 7.5, 0.01% Brij-35, 0.01% Triton, 0.5 mM EGTA). 5 ul of diluted compound was added into wells first, then 10 ul of enzyme mix was added into wells, followed by 10 uL of substrate mix (peptide and ATP in 10 mM MgCl2) to start reaction. Reaction was incubated at 28° C. for 25 min and then added 25 ul stop buffer (100 mM HEPES, 0.015% Brij-35, 50 mM EDTA), followed by reading with Caliper. JAK2 at 1 nM final concentration and TYK2 at 9.75 nM are from Carna, and substrates used are ATP at 20 and 16 uM, respectively. JAK2 assay uses peptide 22 and TYK2 uses peptide 30 (Caliper), each at 3 uM.

JAK2 = JAK2 (Homo sapiens (Human), UniProt O60674); assay: JAK2 activity inhibition assay (radioactive kinase assay / Caliper assay); assay type: biochemical; conditions: read-out: JAK2 Ki
Procedure: as §1, with “The assays are carried out at ATP concentration equivalent to the ATP Km, and at 1 mM ATP.” left out, “Caliper.” for “Caliper. JAK2 at 1 nM final concentration and TYK2 at 9.75 nM are from Carna, and substrates used are ATP at 20 and 16 uM, respectively. JAK2 assay uses peptide 22 and TYK2 uses peptide 30 (Caliper), each at 3 uM.”

JAK2, sequence (O60674 whole entry): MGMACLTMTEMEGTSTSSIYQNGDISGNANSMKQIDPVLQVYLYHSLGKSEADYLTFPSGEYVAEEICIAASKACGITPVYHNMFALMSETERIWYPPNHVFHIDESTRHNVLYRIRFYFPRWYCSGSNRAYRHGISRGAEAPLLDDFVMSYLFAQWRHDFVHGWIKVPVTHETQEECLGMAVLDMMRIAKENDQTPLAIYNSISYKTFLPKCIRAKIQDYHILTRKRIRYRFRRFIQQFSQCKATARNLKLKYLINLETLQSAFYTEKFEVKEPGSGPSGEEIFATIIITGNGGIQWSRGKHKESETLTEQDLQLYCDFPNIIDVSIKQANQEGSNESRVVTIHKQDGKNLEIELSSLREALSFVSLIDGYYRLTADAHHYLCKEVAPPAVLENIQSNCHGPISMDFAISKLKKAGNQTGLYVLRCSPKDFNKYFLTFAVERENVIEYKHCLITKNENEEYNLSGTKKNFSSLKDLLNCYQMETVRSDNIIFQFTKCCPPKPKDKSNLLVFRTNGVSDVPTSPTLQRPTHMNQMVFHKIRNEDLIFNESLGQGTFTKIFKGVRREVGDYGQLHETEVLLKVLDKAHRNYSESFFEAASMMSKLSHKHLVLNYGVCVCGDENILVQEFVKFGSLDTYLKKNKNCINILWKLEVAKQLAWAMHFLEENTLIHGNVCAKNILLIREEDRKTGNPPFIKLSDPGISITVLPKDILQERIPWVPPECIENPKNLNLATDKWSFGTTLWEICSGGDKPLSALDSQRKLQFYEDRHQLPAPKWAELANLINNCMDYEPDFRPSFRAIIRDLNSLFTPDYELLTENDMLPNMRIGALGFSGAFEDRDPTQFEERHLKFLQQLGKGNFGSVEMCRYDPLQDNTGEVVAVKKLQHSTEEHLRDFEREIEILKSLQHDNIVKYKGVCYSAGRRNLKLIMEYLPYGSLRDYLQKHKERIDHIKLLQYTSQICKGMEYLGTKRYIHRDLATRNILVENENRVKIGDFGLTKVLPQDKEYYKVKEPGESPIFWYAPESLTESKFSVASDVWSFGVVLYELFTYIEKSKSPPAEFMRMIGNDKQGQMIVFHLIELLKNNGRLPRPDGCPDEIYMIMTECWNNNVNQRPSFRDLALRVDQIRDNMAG
TYK2, sequence (P29597 whole entry): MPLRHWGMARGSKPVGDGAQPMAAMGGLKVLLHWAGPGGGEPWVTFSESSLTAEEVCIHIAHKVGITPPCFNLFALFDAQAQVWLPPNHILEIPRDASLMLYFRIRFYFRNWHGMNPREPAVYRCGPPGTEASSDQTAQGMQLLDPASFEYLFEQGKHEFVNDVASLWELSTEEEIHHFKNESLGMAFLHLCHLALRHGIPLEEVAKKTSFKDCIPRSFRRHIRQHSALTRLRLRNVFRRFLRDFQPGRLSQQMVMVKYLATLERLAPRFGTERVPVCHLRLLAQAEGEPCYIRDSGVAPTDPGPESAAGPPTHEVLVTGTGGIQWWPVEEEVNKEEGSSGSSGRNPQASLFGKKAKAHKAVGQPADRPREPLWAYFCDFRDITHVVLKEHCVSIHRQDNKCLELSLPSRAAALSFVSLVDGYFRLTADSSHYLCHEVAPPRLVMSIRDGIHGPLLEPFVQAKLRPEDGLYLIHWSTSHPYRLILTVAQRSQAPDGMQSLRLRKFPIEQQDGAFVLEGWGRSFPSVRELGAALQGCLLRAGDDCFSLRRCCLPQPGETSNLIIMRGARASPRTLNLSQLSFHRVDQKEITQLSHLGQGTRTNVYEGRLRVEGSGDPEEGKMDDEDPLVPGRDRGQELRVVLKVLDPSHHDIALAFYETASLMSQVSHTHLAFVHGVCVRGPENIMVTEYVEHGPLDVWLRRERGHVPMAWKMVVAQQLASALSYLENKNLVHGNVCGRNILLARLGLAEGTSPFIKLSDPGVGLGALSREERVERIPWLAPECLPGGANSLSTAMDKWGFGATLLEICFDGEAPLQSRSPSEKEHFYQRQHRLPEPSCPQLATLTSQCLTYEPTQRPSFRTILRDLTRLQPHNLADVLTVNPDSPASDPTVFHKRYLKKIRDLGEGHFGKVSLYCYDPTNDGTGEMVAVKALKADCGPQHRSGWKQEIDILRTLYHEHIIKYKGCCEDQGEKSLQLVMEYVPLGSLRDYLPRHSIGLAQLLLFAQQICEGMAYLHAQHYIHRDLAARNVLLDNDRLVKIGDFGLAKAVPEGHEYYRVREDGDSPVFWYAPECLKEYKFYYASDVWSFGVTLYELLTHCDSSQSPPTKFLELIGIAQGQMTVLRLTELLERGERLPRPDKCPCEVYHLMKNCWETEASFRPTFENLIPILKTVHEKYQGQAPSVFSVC

SMILES | Ki (TYK2) [µM] | Ki (JAK2) [µM]
CN1C(=O)[C@](C)(c2ccc(Nc3nc(-c4c(F)cccc4F)nc4c3C(=O)NC4)cc2)CC1(C)C [Compound I-221, (S)-2-(2,6-difluorophenyl)-4-((4-(1,3,5,5-tetramethyl-2-oxopyrrolidin-3-yl)phenyl)amino)-6,7-dihydro-5H-pyrrolo[3,4-d]pyrimidin-5-one] | < 0.01 | 0.01 to 0.1
COc1ccc(Nc2cc(-c3c(F)cccc3F)nc3c2C(=O)NC3)cc1 [Compound I-230, 2-(2,6-difluorophenyl)-4-((4-methoxyphenyl)amino)-6,7-dihydro-5H-pyrrolo[3,4-b]pyridin-5-one] | < 0.01 | 0.1 to 1
N#Cc1cc(Cl)c(-c2nc3c(c(Nc4ccc(CC(=O)O)cc4)n2)C(=O)NC3)c(Cl)c1 [Compound I-9, 2-(4-((2-(2,6-dichloro-4-cyanophenyl)-5-oxo-6,7-dihydro-5H-pyrrolo[3,4-d]pyrimidin-4-yl)amino)phenyl)acetic Acid] | < 0.01 | 0.1 to 1
CN1C(=O)C(C)(c2ccc(Nc3nc(-c4c(F)cccc4F)nc4c3C(=O)NC4)cc2)CC1(C)C (stereo not drawn) [Compound I-220, 2-(2,6-difluorophenyl)-4-((4-(1,3,5,5-tetramethyl-2-oxo-pyrrolidin-3-yl)phenyl)amino)-6,7-dihydro-5H-pyrrolo[3,4-d]pyrimidin-5-one] | < 0.01 | 0.01 to 0.1
COC(=O)[C@H]1C[C@H](Nc2nc(-c3c(F)cccc3F)nc3c2C(=O)NC3)C1 [Compound I-129, methyl (1r,3r)-3-((2-(2,6-difluorophenyl)-5-oxo-6,7-dihydro-5H-pyrrolo[3,4-d]pyrimidin-4-yl)amino)cyclobutane-1-carboxylate] | > 1 | > 1
O=C1NCc2nc(-c3c(F)cccc3F)cc(Nc3ccc(OCCN4CCC4)cn3)c21 [Compound I-134, 4-((5-(2-(azetidin-1-yl)ethoxy)pyridin-2-yl)amino)-2-(2,6-difluorophenyl)-6,7-dihydro-5H-pyrrolo[3,4-b]pyridin-5-one] | < 0.01 | 0.01 to 0.1
CC1(C)C[C@@H](c2ccc(Nc3nc(-c4c(F)cccc4F)nc4c3C(=O)NC4)cc2)C(=O)N1 [Compound I-218, (S)-2-(2,6-difluorophenyl)-4-((4-(5,5-dimethyl-2-oxopyrrolidin-3-yl)phenyl)amino)-6,7-dihydro-5H-pyrrolo[3,4-d]pyrimidin-5-one] | < 0.01 | 0.1 to 1
O=C(Cc1ccc(Nc2nc(-c3c(F)cccc3Cl)nc3c2C(=O)NC3)cc1)N[C@@H]1CCNC1 [Compound I-81, (R)-2-(4-((2-(2-chloro-6-fluorophenyl)-5-oxo-6,7-dihydro-5H-pyrrolo[3,4-d]pyrimidin-4-yl)amino)phenyl)-N-(pyrrolidin-3-yl)acetamide] | < 0.01 | 0.1 to 1
CCNC(=O)[C@H]1C[C@H](Nc2nc(-c3c(F)cccc3F)nc3c2C(=O)NC3)C1 [Compound I-131, (1r,3r)-3-((2-(2,6-difluorophenyl)-5-oxo-6,7-dihydro-5H-pyrrolo[3,4-d]pyrimidin-4-yl)amino)-N-ethylcyclobutane-1-carboxamide] | > 1 | > 1
CCOC(=O)Cc1ccc(Nc2nc(-c3c(Cl)cccc3Cl)nc3c2C(=O)NC3)cc1 [Compound I-5, ethyl 2-(4-((2-(2,6-dichlorophenyl)-5-oxo-6,7-dihydro-5H-pyrrolo[3,4-d]pyrimidin-4-yl)amino)phenyl)acetate] | < 0.01 | 0.1 to 1
O=C1NCc2nc(-c3c(F)cccc3F)nc(Nc3ccc(Cl)cc3)c21 [Compound I-180, 4-((4-chlorophenyl)amino)-2-(2,6-difluorophenyl)-6,7-dihydro-5H-pyrrolo[3,4-d]pyrimidin-5-one] | 0.01 to 0.1 | > 1
O=C(O)Cc1ccc(Nc2nc(-c3c(F)cccc3C(F)(F)F)nc3c2C(=O)NC3)cc1 [Compound I-82, 2-(4-((2-(2-fluoro-6-(trifluoromethyl)phenyl)-5-oxo-6,7-dihydro-5H-pyrrolo[3,4-d]pyrimidin-4-yl)amino)phenyl)acetic Acid] | 0.01 to 0.1 | > 1
CC1(c2ccc(Nc3nc(-c4c(F)cccc4F)nc4c3C(=O)NC4)cc2)NC(=O)NC1=O (stereo not drawn) [Compound I-172, 5-(4-((2-(2,6-difluorophenyl)-5-oxo-6,7-dihydro-5H-pyrrolo[3,4-d]pyrimidin-4-yl)amino)phenyl)-5-methylimidazolidine-2,4-dione] | < 0.01 | 0.01 to 0.1
O=C1NCc2nc(-c3c(F)cccc3F)nc(Nc3ccc(CC(=O)N4CCOC[C@H]4C(=O)O)cc3)c21 [Compound I-112, (S)-4-(2-(4-((2-(2,6-difluorophenyl)-5-oxo-6,7-dihydro-5H-pyrrolo[3,4-d]pyrimidin-4-yl)amino)phenyl)acetyl)morpholine-3-carboxylic Acid] | < 0.01 | 0.1 to 1
CC1(C)C[C@H](c2ccc(Nc3nc(-c4c(F)cccc4F)nc4c3C(=O)NC4)cc2)C(=O)N1 [Compound I-219, (R)-2-(2,6-difluorophenyl)-4-((4-(5,5-dimethyl-2-oxopyrrolidin-3-yl)phenyl)amino)-6,7-dihydro-5H-pyrrolo[3,4-d]pyrimidin-5-one] | < 0.01 | 0.01 to 0.1

Results, then the molecule that gave them:

Ki (TYK2) [µM] | Ki (JAK2) [µM] | SMILES
< 0.01 | 0.1 to 1 | O=C(Cc1ccc(Nc2nc(-c3c(F)cccc3F)nc3c2C(=O)NC3)cc1)N[C@@H]1CCNC1 [Compound I-73, (R)-2-(4-((2-(2,6-difluorophenyl)-5-oxo-6,7-dihydro-5H-pyrrolo[3,4-d]pyrimidin-4-yl)amino)phenyl)-N-(pyrrolidin-3-yl)acetamide]
0.01 to 0.1 | 0.1 to 1 | NC(=O)c1cc(F)c(-c2cc(Nc3ccc(N4CCOCC4)cn3)c3c(n2)CNC3=O)c(F)c1 [Compound I-250, 3,5-difluoro-4-(4-((5-morpholinopyridin-2-yl)amino)-5-oxo-6,7-dihydro-5H-pyrrolo[3,4-b]pyridin-2-yl)benzamide]
< 0.01 | 0.1 to 1 | CN1CC[C@](C)(c2ccc(Nc3nc(-c4c(F)cccc4F)nc4c3C(=O)NC4)cc2)C1=O [Compound I-152, (R)-2-(2,6-difluorophenyl)-4-((4-(1,3-dimethyl-2-oxopyrrolidin-3-yl)phenyl)amino)-6,7-dihydro-5H-pyrrolo[3,4-d]pyrimidin-5-one]
< 0.01 | 0.1 to 1 | CN1CCN[C@](C)(c2ccc(Nc3nc(-c4c(F)cccc4F)nc4c3C(=O)NC4)cc2)C1=O [Compound I-216, (R)-2-(2,6-difluorophenyl)-4-((4-(2,4-dimethyl-3-oxopiperazin-2-yl)phenyl)amino)-6,7-dihydro-5H-pyrrolo[3,4-d]pyrimidin-5-one]
< 0.01 | 0.1 to 1 | O=C1NCc2nc(-c3c(F)cccc3F)nc(Nc3ccc(CC(=O)N4CCC[C@@H]4CO)cc3)c21 [Compound I-15, (R)-2-(2,6-difluorophenyl)-4-((4-(2-(2-(hydroxymethyl)pyrrolidin-1-yl)-2-oxoethyl)phenyl)amino)-6,7-dihydro-5H-pyrrolo[3,4-d]pyrimidin-5-one]
< 0.01 | 0.1 to 1 | O=C1NCc2nc(-c3c(F)cccc3F)nc(Nc3ccc(CC(=O)N4CC5(COC5)C4)cc3)c21 [Compound I-62, 2-(2,6-difluorophenyl)-4-((4-(2-oxo-2-(2-oxa-6-azaspiro[3.3]heptan-6-yl)ethyl)phenyl)amino)-6,7-dihydro-5H-pyrrolo[3,4-d]pyrimidin-5-one]
< 0.01 | 0.1 to 1 | CCOC(=O)C(C)(C)c1ccc(Nc2nc(-c3c(F)cccc3F)nc3c2C(=O)NC3)cc1 [Compound I-178, ethyl 2-(4-((2-(2,6-difluorophenyl)-5-oxo-6,7-dihydro-5H-pyrrolo[3,4-d]pyrimidin-4-yl)amino)phenyl)-2-methylpropanoate]
< 0.01 | 0.01 to 0.1 | COC(=O)Cc1ccc(Nc2cc(-c3c(F)cccc3F)nc3c2C(=O)NC3)nc1 [Compound I-132, methyl 2-(6-((2-(2,6-difluorophenyl)-5-oxo-6,7-dihydro-5H-pyrrolo[3,4-b]pyridin-4-yl)amino)pyridin-3-yl)acetate]
< 0.01 | 0.1 to 1 | O=C1NCc2nc(-c3c(F)cccc3F)nc(Nc3ccc(C(=O)N4CC(O)C4)cc3)c21 [Compound I-168, 2-(2,6-difluorophenyl)-4-((4-(3-hydroxyazetidine-1-carbo-nyl)phenyl)amino)-6,7-dihydro-5H-pyrrolo[3,4-d]pyrimidin-5-one]
